ChEMBL document CHEMBL1133208, “Synthesis and biological properties of new 1beta-methylcarbapenems having tetrazolothioether moiety” (Bioorg Med Chem Lett, 2000)
In brackets after ≈: the same amount, converted by molar mass.

Experiments:
Escherichia coli [1] = experiment: In vitro antibacterial activity against Escherichia coli 078 by agar dilution method using Mueller-Hinton; type: functional
Staphylococcus aureus [2] = experiment: In vitro antibacterial activity against Staphylococcus aureus SG 503 by agar dilution method using Mueller-Hinton; type: functional
Enterobacter cloacae = experiment: In vitro antibacterial activity against Enterobacter cloacae 1321E by agar dilution method using Mueller-Hinton; type: functional
Salmonella typhimurium = experiment: In vitro antibacterial activity against Salmonella Typhimurium by agar dilution method using Mueller-Hinton; type: functional, Salmonella enterica subsp. enterica serovar Typhimurium; conditions: Salmonella enterica
Escherichia coli [3] = experiment: In vitro antibacterial activity against Escherichia coli 1507E by agar dilution method using Mueller-Hinton; type: functional
Staphylococcus aureus [4] = experiment: In vitro antibacterial activity against Staphylococcus aureus SG 285 by agar dilution method using Mueller-Hinton; type: functional
Streptococcus pyogenes = experiment: In vitro antibacterial activity against Streptococcus pyogenes 308A by agar dilution method using Mueller-Hinton; type: functional
Klebsiella aerogenes = experiment: In vitro antibacterial activity against Klebsiella aerogenes 1522E by agar dilution method using Mueller-Hinton; type: functional
Pseudomonas aeruginosa [5] = experiment: In vitro antibacterial activity against Pseudomonas aeruginosa 9027 by agar dilution method using Mueller-Hinton; type: functional
Pseudomonas aeruginosa [6] = experiment: In vitro antibacterial activity against Pseudomonas aeruginosa 1592E by agar dilution method using Mueller-Hinton; type: functional
Pseudomonas aeruginosa [7] = experiment: In vitro antibacterial activity against Pseudomonas aeruginosa 1771M by agar dilution method using Mueller-Hinton; type: functional
Staphylococcus aureus [8] = experiment: In vitro antibacterial activity against Staphylococcus aureus SG 511 by agar dilution method using Mueller-Hinton; type: functional
[9] = Pharmacokinetic studies were carried out to determine the clearance after administration at 20 mg/kg intravenously in rat; type: ADME, organism-based; set-up: dose 20 mg/kg, route intravenous; conditions: in vivo, iv
[10] = The area under concentration-time curve(AUC) was determined at 20 mg/kg of compound dose, administered intravenously in rat; type: ADME, organism-based; set-up: dose 20 mg/kg, route intravenous; conditions: in vivo, iv

Row | MIC (Escherichia coli [1]) [µg/mL] | MIC (Staphylococcus aureus [2]) [µg/mL] | MIC (Enterobacter cloacae) [µg/mL] | MIC (Salmonella typhimurium) [µg/mL] | MIC (Escherichia coli [3]) [µg/mL] | MIC (Staphylococcus aureus [4]) [µg/mL] | MIC (Streptococcus pyogenes) [µg/mL] | MIC (Klebsiella aerogenes) [µg/mL] | MIC (Pseudomonas aeruginosa [5]) [µg/mL] | MIC (Pseudomonas aeruginosa [6]) [µg/mL] | MIC (Pseudomonas aeruginosa [7]) [µg/mL] | MIC (Staphylococcus aureus [8]) [µg/mL] | Structure (SMILES) | clearance [9] [mL/min/kg] | AUC [10] [ng·h/mL]
1 | 0.025 (≈ 0.0531 µM) | 0.049 (≈ 0.104 µM) | 0.049 (≈ 0.104 µM) | 0.049 (≈ 0.104 µM) | 0.025 (≈ 0.0531 µM) | 0.098 (≈ 0.208 µM) | 0.007 (≈ 0.0149 µM) | 0.049 (≈ 0.104 µM) | 1.56 (≈ 3.32 µM) | 1.56 (≈ 3.32 µM) | 0.195 (≈ 0.414 µM) | 0.098 (≈ 0.208 µM) | C[C@@H](O)[C@H]1C(=O)N2C(C(=O)O)=C(S[C@@H]3CN[C@H](CSc4nnnn4CCO)C3)[C@H](C)[C@H]12 |  | 
2 | 0.025 (≈ 0.0502 µM) | 0.025 (≈ 0.0502 µM) | 0.025 (≈ 0.0502 µM) | 0.049 (≈ 0.0985 µM) | 0.025 (≈ 0.0502 µM) | 0.098 (≈ 0.197 µM) | 0.013 (≈ 0.0261 µM) | 0.049 (≈ 0.0985 µM) | 1.56 (≈ 3.14 µM) | 0.781 (≈ 1.57 µM) | 0.195 (≈ 0.392 µM) | 0.098 (≈ 0.197 µM) | C[C@@H](O)[C@H]1C(=O)N2C(C(=O)O)=C(S[C@@H]3CN[C@H](CSc4nnnn4CCC(N)=O)C3)[C@H](C)[C@H]12 |  | 
3 | 0.025 (≈ 0.0489 µM) | 0.049 (≈ 0.0958 µM) | 0.025 (≈ 0.0489 µM) | 0.049 (≈ 0.0958 µM) | 0.025 (≈ 0.0489 µM) | 0.098 (≈ 0.192 µM) | 0.007 (≈ 0.0137 µM) | 0.049 (≈ 0.0958 µM) | 1.56 (≈ 3.05 µM) | 1.56 (≈ 3.05 µM) | 0.391 (≈ 0.764 µM) | 0.098 (≈ 0.192 µM) | CNC(=O)CCn1nnnc1SC[C@@H]1C[C@H](SC2=C(C(=O)O)N3C(=O)[C@H]([C@@H](C)O)[C@H]3[C@H]2C)CN1 |  | 
4 | 0.025 (≈ 0.0567 µM) | 0.025 (≈ 0.0567 µM) | 0.025 (≈ 0.0567 µM) | 0.025 (≈ 0.0567 µM) | 0.025 (≈ 0.0567 µM) | 0.049 (≈ 0.111 µM) | 0.004 (≈ 0.00908 µM) | 0.025 (≈ 0.0567 µM) | 0.781 (≈ 1.77 µM) | 0.781 (≈ 1.77 µM) | 0.195 (≈ 0.443 µM) | 0.025 (≈ 0.0567 µM) | C[C@@H](O)[C@H]1C(=O)N2C(C(=O)O)=C(S[C@@H]3CN[C@H](CSc4nnnn4C)C3)[C@H](C)[C@H]12 | 21.8 | 15900
5 | 0.025 (≈ 0.0456 µM) | 0.025 (≈ 0.0456 µM) | 0.025 (≈ 0.0456 µM) | 0.049 (≈ 0.0895 µM) | 0.025 (≈ 0.0456 µM) | 0.098 (≈ 0.179 µM) | 0.007 (≈ 0.0128 µM) | 0.049 (≈ 0.0895 µM) | 3.12 (≈ 5.71 µM) | 3.12 (≈ 5.71 µM) | 0.391 (≈ 0.714 µM) | 0.098 (≈ 0.179 µM) | CNS(=O)(=O)CCn1nnnc1SC[C@@H]1C[C@H](SC2=C(C(=O)O)N3C(=O)[C@H]([C@@H](C)O)[C@H]3[C@H]2C)CN1 |  | 
6 | 0.025 (≈ 0.0502 µM) | 0.025 (≈ 0.0502 µM) | 0.049 (≈ 0.0985 µM) | 0.098 (≈ 0.197 µM) | 0.049 (≈ 0.0985 µM) | 0.098 (≈ 0.197 µM) | 0.013 (≈ 0.0261 µM) | 0.098 (≈ 0.197 µM) | 3.12 (≈ 6.28 µM) | 3.12 (≈ 6.28 µM) | 0.195 (≈ 0.392 µM) | 0.049 (≈ 0.0985 µM) | C[C@@H](O)[C@H]1C(=O)N2C(C(=O)O)=C(S[C@@H]3CN[C@H](CSc4nnnn4CCN(C)C)C3)[C@H](C)[C@H]12 |  | 
7 | 0.025 (≈ 0.0489 µM) | 0.049 (≈ 0.0958 µM) | 0.049 (≈ 0.0958 µM) | 0.049 (≈ 0.0958 µM) | 0.049 (≈ 0.0958 µM) | 0.195 (≈ 0.381 µM) | 0.013 (≈ 0.0254 µM) | 0.098 (≈ 0.192 µM) | 3.12 (≈ 6.11 µM) | 3.12 (≈ 6.11 µM) | 0.391 (≈ 0.764 µM) | 0.195 (≈ 0.381 µM) | C[C@@H](O)[C@H]1C(=O)N2C(C(=O)O)=C(S[C@@H]3CN[C@H](CSc4nnnn4CC(=O)N(C)C)C3)[C@H](C)[C@H]12 |  | 
8 | 0.025 (≈ 0.0502 µM) | 0.098 (≈ 0.197 µM) | 0.049 (≈ 0.0985 µM) | 0.098 (≈ 0.197 µM) | 0.049 (≈ 0.0985 µM) | 0.195 (≈ 0.392 µM) | 0.013 (≈ 0.0261 µM) | 0.098 (≈ 0.197 µM) | 1.56 (≈ 3.14 µM) | 1.56 (≈ 3.14 µM) | 0.391 (≈ 0.786 µM) | 0.195 (≈ 0.392 µM) | CNC(=O)Cn1nnnc1SC[C@@H]1C[C@H](SC2=C(C(=O)O)N3C(=O)[C@H]([C@@H](C)O)[C@H]3[C@H]2C)CN1 |  | 

The remaining lines, values behind:

Row | Structure (SMILES) | MIC (Escherichia coli [1]) [µg/mL] | MIC (Staphylococcus aureus [2]) [µg/mL] | MIC (Enterobacter cloacae) [µg/mL] | MIC (Salmonella typhimurium) [µg/mL] | MIC (Escherichia coli [3]) [µg/mL] | MIC (Staphylococcus aureus [4]) [µg/mL] | MIC (Streptococcus pyogenes) [µg/mL] | MIC (Klebsiella aerogenes) [µg/mL] | MIC (Pseudomonas aeruginosa [5]) [µg/mL] | MIC (Pseudomonas aeruginosa [6]) [µg/mL] | MIC (Pseudomonas aeruginosa [7]) [µg/mL] | MIC (Staphylococcus aureus [8]) [µg/mL] | clearance [9] [mL/min/kg] | AUC [10] [ng·h/mL]
9 | C[C@@H](O)[C@H]1C(=O)N2C(C(=O)O)=C(S[C@@H]3CN[C@H](CSc4nnnn4CCS(=O)(=O)N(C)C)C3)[C@H](C)[C@H]12 | 0.025 (≈ 0.0445 µM) | 0.025 (≈ 0.0445 µM) | 0.025 (≈ 0.0445 µM) | 0.049 (≈ 0.0872 µM) | 0.025 (≈ 0.0445 µM) | 0.098 (≈ 0.174 µM) | 0.007 (≈ 0.0125 µM) | 0.049 (≈ 0.0872 µM) | 6.25 (≈ 11.1 µM) | 12.5 (≈ 22.3 µM) | 0.391 (≈ 0.696 µM) | 0.098 (≈ 0.174 µM) |  | 
10 | C[C@@H](O)[C@H]1C(=O)N2C(C(=O)O)=C(S[C@@H]3CN[C@H](CSc4nnnn4-c4ccccc4)C3)[C@H](C)[C@H]12 | 0.195 (≈ 0.388 µM) | 0.025 (≈ 0.0497 µM) | 0.098 (≈ 0.195 µM) | 0.098 (≈ 0.195 µM) | 0.391 (≈ 0.778 µM) | 0.049 (≈ 0.0975 µM) | 0.007 (≈ 0.0139 µM) | 0.391 (≈ 0.778 µM) | 50 (≈ 99.5 µM) | 50 (≈ 99.5 µM) | 3.12 (≈ 6.22 µM) | 0.049 (≈ 0.0975 µM) |  | 
11 | C[C@@H](O)[C@H]1C(=O)N2C(C(=O)O)=C(S[C@@H]3CN[C@H](CSc4nnnn4-c4ccncc4)C3)[C@H](C)[C@H]12 | 0.098 (≈ 0.195 µM) | 0.049 (≈ 0.0973 µM) | 0.098 (≈ 0.195 µM) | 0.049 (≈ 0.0973 µM) | 0.195 (≈ 0.387 µM) | 0.098 (≈ 0.195 µM) | 0.007 (≈ 0.0139 µM) | 0.195 (≈ 0.387 µM) | 50 (≈ 99.3 µM) | 50 (≈ 99.3 µM) | 0.781 (≈ 1.55 µM) | 0.049 (≈ 0.0973 µM) |  | 
12 | C[C@@H](O)[C@H]1C(=O)N2C(C(=O)[O-])=C(S[C@@H]3CN[C@H](CSc4nnnn4CC[N+](C)(C)C)C3)[C@H](C)[C@H]12 | 0.049 (≈ 0.0958 µM) | 0.049 (≈ 0.0958 µM) | 0.098 (≈ 0.192 µM) | 0.195 (≈ 0.381 µM) | 0.098 (≈ 0.192 µM) | 0.195 (≈ 0.381 µM) | 0.025 (≈ 0.0489 µM) | 0.195 (≈ 0.381 µM) | 0.781 (≈ 1.53 µM) | 0.781 (≈ 1.53 µM) | 0.195 (≈ 0.381 µM) | 0.098 (≈ 0.192 µM) |  | 
13 | C[C@@H](O)[C@H]1C(=O)N2C(C(=O)O)=C(SCCNC=N)C[C@H]12 [IMIPENEM ANHYDROUS] | 0.098 (≈ 0.327 µM) | 0.013 (≈ 0.0434 µM) | 0.195 (≈ 0.651 µM) | 0.781 (≈ 2.61 µM) | 0.195 (≈ 0.651 µM) | 0.025 (≈ 0.0835 µM) | 0.007 (≈ 0.0234 µM) | 0.391 (≈ 1.31 µM) | 0.781 (≈ 2.61 µM) | 1.56 (≈ 5.22 µM) | 0.195 (≈ 0.651 µM) | 0.025 (≈ 0.0835 µM) | 61.5 | 5500
14 | C[C@@H](O)[C@H]1C(=O)N2C(C(=O)O)=C(S[C@@H]3CN[C@H](C(=O)N(C)C)C3)[C@H](C)[C@H]12 [MEROPENEM] | 0.025 (≈ 0.0652 µM) | 0.098 (≈ 0.256 µM) | 0.025 (≈ 0.0652 µM) | 0.049 (≈ 0.128 µM) | 0.025 (≈ 0.0652 µM) | 0.195 (≈ 0.509 µM) | 0.013 (≈ 0.0339 µM) | 0.049 (≈ 0.128 µM) | 0.195 (≈ 0.509 µM) | 0.195 (≈ 0.509 µM) | 0.049 (≈ 0.128 µM) | 0.195 (≈ 0.509 µM) |  | 
